Test results as given in US20020183309A1, “Novel amines as histamine-3 receptor ligands and their therapeutic applications” (priority 2001, published 2002).
Read-outs that look alike come from different tables or passages of the source.

Target: T1, histamine-3 receptors (H3 receptor) (Rattus norvegicus, UniProt Q9QYN8)
T1 construct: from tissue; host or cells: male Sprague-Dawley rat brain cortex membranes
Assay: (3H)-N-α-methylhistamine binding to rat cortical membranes
Method: Briefly, male Sprague-Dawley rat brain cortices were homogenized (1 g tissue/10 mL buffer) in 50 mM Tris-HCl/5 mM EDTA containing protease inhibitor cocktail (Calbiochem) using a polytron set at 20,500 rpm. Homogenates were centrifuged for 20 minutes at 40,000×g. The supernatant was decanted, and pellets were weighed. The pellet was resuspended by polytron homogenization in 40 mL 50 mM Tris-HCl/5 mM EDTA with protease inhibitors and centrifuged for 20 minutes at 40,000×g. […] Rat cortical membranes (12 mg wet weight/tube) were incubated with (^3H)-N-α-methylhistamine (˜0.6 nM) with or without H3 receptor antagonists in a total incubation volume of 0.5 mL of 50 mM Tris-HCl/5 mM EDTA (pH 7.7). Test compounds were dissolved in DMSO to provide a 20 mM solution, serially diluted and then added to the incubation mixtures prior to initiating the incubation assay by addition of the membranes. Thioperamide (3 μM) was used to determine nonspecific binding. Binding incubations were conducted for 30 minutes at 25° C. and terminated by addition of 2 mL of ice cold 50 mM Tris-HCl (pH 7.7) and filtration through 0.3% polyethylenimine-soaked Unifilter plates (Packard). These filters were washed 4 additional times with 2 mL of ice-cold 50 mM Tris-HCl and dried for 1 hour. Radioactivity was determined using liquid scintillation counting techniques. Results were analyzed by Hill transformation and Ki values were determined using the Cheng-Prusoff equation.

[1] = male Sprague-Dawley rat brain cortical membranes, (3H)-N-α-methylhistamine ~0.6 nM, 30 minutes at 25° C., Cheng-Prusoff equation, read-out: Ki

T1 sequence (Q9QYN8 whole entry): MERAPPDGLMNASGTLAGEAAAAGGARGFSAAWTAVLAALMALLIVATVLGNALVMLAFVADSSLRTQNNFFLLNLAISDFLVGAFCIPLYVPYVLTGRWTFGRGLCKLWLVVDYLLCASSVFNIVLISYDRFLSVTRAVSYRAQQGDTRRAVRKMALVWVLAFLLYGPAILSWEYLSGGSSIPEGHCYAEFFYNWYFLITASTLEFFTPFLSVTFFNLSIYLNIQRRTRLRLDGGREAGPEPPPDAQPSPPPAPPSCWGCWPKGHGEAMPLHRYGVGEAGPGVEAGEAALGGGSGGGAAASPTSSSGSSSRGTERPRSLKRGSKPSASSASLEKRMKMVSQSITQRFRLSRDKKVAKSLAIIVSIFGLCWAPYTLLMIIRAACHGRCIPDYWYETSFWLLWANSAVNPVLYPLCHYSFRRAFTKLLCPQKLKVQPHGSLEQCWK

SMILES | Ki [1] [nM] | Ki [nM]
CN(CCc1cc2cc(-c3ccc(C#N)cc3)ccc2o1)C(C)(C)C [Example 18, 4-(2-{2-[tert-butyl (methyl)amino]ethyl}-1-benzofuran-5-yl)benzonitrile] | 60.5 | 
O=C(c1ccc(-c2ccc3oc(CCN4CC5CC4CO5)cc3c2)nc1)N1CCOCC1 (stereo not drawn) [Example 61, 5-(2-{5-[5-(4-morpholinylcarbonyl)-2-pyridinyl]-1-benzofuran-2-yl}ethyl)-2-oxa-5-azabicyclo[2.2.1]heptane] | 143 | 
C[C@@H]1CC[C@@H](C)N1CCc1cc2cc(-c3ccc(C#N)cc3)ccc2o1 [Example 12, 4-(2-{2-[(2R,5R)-2,5-dimethylpyrrolidinyl]ethyl}-1-benzofuran-5-yl)benzonitrile] | 38.4 | 
COc1ccc(C(=O)c2ccc3oc(CCN4CCC[C@H]4C)cc3c2)cc1 [Example 73, (4-methoxyphenyl)(2-{2-[(2R)-2-methyl-1-pyrrolidinyl]ethyl}-1-benzofuran-5-yl)methanone] | 2.9 | 
O=C(c1ccc(-c2ccc3oc(CCN4CC=CCC4)cc3c2)cc1)N1CCOCC1 [Example 33, 4-(4-{2-[2-(3,6-dihydro-1(2H)-pyridinyl)ethyl]-1-benzofuran-5-yl}benzoyl)morpholine] | 32.3 | 
CN(C)CCc1cc2cc(-c3ccc(C(=O)N4CCOCC4)cn3)ccc2o1 [Example 58, N,N-dimethyl-N-(2-{5-[5-(4-morpholinylcarbonyl)-2-pyridinyl]-1-benzofuran-2-yl}ethyl)amine] | 133 | 
N#Cc1ccc(-c2ccc3oc(CCN4CC=CCC4)cc3c2)cc1 [Example 16, 4-{2-[2-(3,6-dihydro-1(2H)-pyridinyl)ethyl]-1-benzofuran-5-yl}benzonitrile] | 92.2 | 
O=C(c1ccc(-c2ccc3oc(CCN4CCOCC4)cc3c2)cc1)N1CCOCC1 [Example 32, 4-(4-{2-[2-(4-morpholine)ethyl]-1-benzofuran-5-yl}benzoyl)morpholine] | 265 | 
CCCNCCc1cc2cc(-c3ccc(C(=O)N4CCOCC4)cn3)ccc2o1 [Example 65, N-(2-{5-[5-(4-morpholinylcarbonyl)-2-pyridinyl]-1-benzofuran-2-yl}ethyl)-N-propylamine] | 596 | 
COc1ccccc1C(=O)c1ccc2oc(CCN3CCC[C@H]3C)cc2c1 [Example 82, (2-methoxyphenyl)(2-{2-[(2R)-2-methyl-1-pyrrolidinyl]ethyl}-1-benzofuran-5-yl)methanone] | 1.6 | 
CC(C)CN(C)CCc1cc2cc(-c3ccc(C(=O)N4CCOCC4)cc3)ccc2o1 [Example 37, N-isobutyl-N-methyl-N-(2-{5-[4-(4-morpholinylcarbonyl)phenyl]-1-benzofuran-2-yl}ethyl)amine] | 248 | 
CC(C)N(C)CCc1cc2cc(-c3ccc(C(=O)N4CCOCC4)cn3)ccc2o1 [Example 56, N-isopropyl-N-methyl-N-(2-{5-[5-(4-morpholinylcarbonyl)-2-pyridinyl]-1-benzofuran-2-yl}ethyl)amine] | 105 | 
CC(C)CN(C)CCc1cc2cc(-c3ccc(C#N)cc3)ccc2o1 [Example 20, 4-(2-{2-[isobutyl(methyl)amino]ethyl}-1-benzofuran-5-yl)benzonitrile] | 180 | 
CC1CCN(CCc2cc3cc(-c4ccc(C(=O)N5CCOCC5)cn4)ccc3o2)CC1 [Example 52, 4-[(6-{2-[2-(4-methyl-1-piperidinyl)ethyl]-1-benzofuran-5-yl}-3-pyridinyl)carbonyl]morpholine] | 162 | 
O=C(c1ccc(-c2ccc3oc(CCN4CCC5(CC4)OCCO5)cc3c2)nc1)N1CCOCC1 [Example 60, 8-(2-{5-[5-(4-morpholinylcarbonyl)-2-pyridinyl]-1-benzofuran-2-yl}ethyl)-1,4-dioxa-8-azaspiro[4.5]decane] | 1000 | 
C[C@@H]1CCCN1CCc1cc2cc(C(=O)c3ccc(N(C)C)cc3)ccc2o1 [Example 79, [4-(dimethylamino)phenyl](2-{2-[(2R)-2-methyl-1-pyrrolidinyl]ethyl}-1-benzofuran-5-yl)methanone] | 3.8 | 
CN(C)[C@@H]1CCN(CCc2cc3cc(-c4ccc(C#N)cc4)ccc3o2)C1 [Example 66, 4-(2-{2-[(3R)-3-(dimethylamino)pyrrolidinyl]ethyl}-1-benzofuran-5-yl)benzonitrile] |  | 90.4
C[C@@H]1CCCN1CCc1cc2cc(C(=O)c3cccc(Cl)c3)ccc2o1 [Example 71, (3-chlorophenyl)(2-{2-[(2R)-2-methyl-1-pyrrolidinyl]ethyl}-1-benzofuran-5-yl)methanone] | 2 | 
O=C(c1ccc(-c2ccc3oc(CCN4CCCC4)cc3c2)nc1)N1CCOCC1 [Example 44, 4-[(6-{2-[2-(1-pyrrolidinyl)ethyl]-1-benzofuran-5-yl}-3-pyridinyl)carbonyl]morpholine] | 17.2 | 
CCN(CC)CCc1c(C)c2cc(-c3ccc(C#N)cc3)ccc2oc1=O [Example 43, 4-{3-[2-(diethylamino)ethyl]-4-methyl-2-oxo-2H-chromen-6-yl}benzonitrile] | 14.6 | 
N#Cc1ccc(-c2ccc3oc(CCN4CC[C@@H](O)C4)cc3c2)cc1 [Example 7, 4-(2-{2-[(3R)-3-hydroxypyrrolidinyl]ethyl}-1-benzofuran-5-yl)benzonitrile] | 94.9 | 
